Reference: patent publication US20260138949A1, “NOVEL COMPOUND AS PHOSPHOLIPASE D INHIBITOR AND USE THEREOF” (UIF (UNIVERSITY INDUSTRY FOUNDATION), YONSEI UNIVERSITY, priority 2022, published 2026)

System: phospholipase D1
Experiment: PLD activity in HCT116 cells ([3H]phosphatidylbutanol, TLC)
Assay type: cell-based, human
Conditions: compound 10 μM, cells without the compound = 100%
Experimental: To evaluate the inhibitory effect of the compounds according to the present invention on phospholipase D1 activity, experiments were conducted as follows.
For the analysis of PLD activity in cells, human colon cancer cell line (HCT116) was cultured in a 6-well plate at 37° C. for 24 hours, washed twice with phosphate-buffered saline (PBS), and then replaced with medium containing [^3H]myristate and cultured for 24 hours. After the culture, the cells were washed three times with PBS, treated with 1-butanol, and the drug was added to a final concentration of 10 μM. The cells were trypsinized and suspended, and the amount of [^3H]phosphatidylbutanol produced in the cell suspension was measured and evaluated for PLD activity using thin layer chromatography (TLC), and the results are shown in Table 1 below.
The Remaining activity % at 10 μM in Table 1 is calculated by setting the amount of [^3H]phosphatidylbutanol produced in cells without the compound as 100% and calculating the amount of [^3H]phosphatidylbutanol produced in cells treated with the compound as a percentage. Therefore, the lower the value of Remaining activity %, the higher the PLD inhibitory activity.

SMILES | Remaining activity % at 10 μM | Remaining activity % at 10 μM (10 µM) [%]
O=C(CCc1c[nH]c2ccccc12)Nc1cccc(F)c1 [Example 1-62, N-(3-fluorophenyl)-3-(1H-indol-3-yl)propanamide] | 49.36% | –
O=C(Cc1c[nH]c2ccccc12)Nc1ccc(C(F)(F)F)cc1 [Example 1-26, 2-(1H-indol-3-yl)-N-(4-(trifluoromethyl)phenyl)acetamide] | 82.43% | –
O=C(Oc1cc(C(F)(F)F)cc(C(F)(F)F)c1)c1cc2cc(F)ccc2[nH]1 [Example 1-118, 3,5-bis(trifluoromethyl)phenyl 5-fluoro-1H-indole-2-carboxylate] | 49.17% | –
Cc1cccc(CNC(=O)Cc2c[nH]c3ccccc23)c1 [Example 1-40, 2-(1H-indol-3-yl)-N-(3-methylbenzyl)acetamide] | 95.87% | –
O=C(Cc1c[nH]c2ccccc12)Nc1ccc(F)cc1 [Example 1-14, N-(4-fluorophenyl)-2-(1H-indol-3-yl)acetamide] | not active | –
O=C(Nc1ccc(O)c(O)c1)c1cc2ccccc2[nH]1 [Example 1-109, N-(3,4-dihydroxyphenyl)-1H-indole-2-carboxamide] | not active | –
O=C(Nc1cccc(F)c1)c1cc2cc(F)ccc2[nH]1 [Example 1-98, 5-fluoro-N-(3-fluorophenyl)-1H-indole-2-carboxamide] | 76.66% | –
COc1ccc(NC(=O)c2cc3cc(F)ccc3[nH]2)cc1OC [Example 1-93, N-(3,4-dimethoxyphenyl)-5-fluoro-1H-indole-2-carboxamide] | 58.09% | –
O=C(Cc1c[nH]c2ccccc12)OCc1ccc([N+](=O)[O-])cc1 [Example 1-115, 4-nitrobenzyl 2-(1H-indol-3-yl)acetate] | 55.24% | –
CC(C)(C)c1ccc(CNC(=O)Cc2c[nH]c3ccccc23)cc1 [Example 1-41, N-(4-tert-butylbenzyl)-2-(1H-indol-3-yl)acetamide] | 59.99% | –
O=C(Cc1c[nH]c2ccccc12)Nc1cc(C(F)(F)F)cc(C(F)(F)F)c1 [Example 1-32, N-(3,5-bis(trifluoromethyl)phenyl)-2-(1H-indol-3-yl)acetamide] | 40.95% | –
O=C(Nc1cc(F)cc(F)c1)c1cc2cc(F)ccc2[nH]1 [Example 1-92, N-(3,5-difluorophenyl)-5-fluoro-1H-indole-2-carboxamide] | 56.88% | –
O=C(CCc1c[nH]c2ccccc12)Nc1cc(C(F)(F)F)cc(C(F)(F)F)c1 [Example 1-67, N-(3,5-bis(trifluoromethyl)phenyl)-3-(1H-indol-3-yl)propanamide] | 29.17% | –
O=C(CCCc1c[nH]c2ccccc12)Nc1ccc(Cl)c([N+](=O)[O-])c1 [Example 1-78, N-(4-chloro-3-nitrophenyl)-4-(1H-indol-3-yl)butanamide] | 42.24% | –
CCC(C)c1ccc(NC(=O)Cc2c[nH]c3ccccc23)cc1 (stereo not drawn) [Example 1-34, N-(4-sec-butylphenyl)-2-(1H-indol-3-yl)acetamide] | 66.07% | –
O=C(Cc1c[nH]c2ccccc12)Nc1ccc(O)cc1 [Example 1-24, N-(4-hydroxyphenyl)-2-(1H-indol-3-yl)acetamide] | not active | –
O=C(Cc1c[nH]c2ccccc12)NCc1ccc(F)cc1 [Example 1-37, N-(4-fluorobenzyl)-2-(1H-indol-3-yl)acetamide] | not active | –
O=C(CCc1c[nH]c2ccccc12)Nc1ccc(Cl)c([N+](=O)[O-])c1 [Example 1-68, N-(4-chloro-3-nitrophenyl)-3-(1H-indol-3-yl)propanamide] | not active | –
O=C(Nc1ccc(Cl)c(Cl)c1)c1c[nH]c2ccccc12 [Example 1-4, N-(3,4-dichlorophenyl)-1H-indole-3-carboxamide] | 56.19% | –
O=C(CCCc1c[nH]c2ccccc12)Nc1cccc(F)c1 [Example 1-74, N-(3-fluorophenyl)-4-(1H-indol-3-yl)butanamide] | 72.65% | –
O=C(Cc1c[nH]c2ccccc12)NCc1ccc(O)c(O)c1 [Example 1-107, N-(3,4-dihydroxybenzyl)-2-(1H-indol-3-yl)acetamide] | 88.12% | –
O=C(CCCC[C@@H]1SC[C@@H]2NC(=O)N[C@@H]21)NNC(=O)c1ccc2[nH]c(C(=O)Nc3cc(C(F)(F)F)cc(C(F)(F)F)c3)cc2c1 [Example 1-119, N-(3,5-bis(trifluoromethyl)phenyl)-5-(2-(5-((3aS,4S,6aR)-2-oxohexahydro-1H-thieno[3,4-d]imidazol-4-yl)pentanoyl)hydrazine-1-carbonyl)-1H-indole-2-carboxamide] | 27.26% | –
CCOC(=O)c1ccc(NC(=O)Cc2c[nH]c3ccccc23)cc1 [Example 1-29, ethyl 4-(2-(1H-indol-3-yl)acetamido)benzoate] | 76.8% | –

SMILES | Remaining activity % at 10 μM | Remaining activity % at 10 μM (10 µM) [%]
O=C(Nc1ccc(F)cc1)c1cc2cc(F)ccc2[nH]1 [Example 1-90, 5-fluoro-N-(4-fluorophenyl)-1H-indole-2-carboxamide] | 48.64% | –
O=C(Nc1cc(O)cc(O)c1)c1cc2cc(F)ccc2[nH]1 [Example 1-112, N-(3,5-dihydroxyphenyl)-5-fluoro-1H-indole-2-carboxamide] | not active | –
O=C(Cc1c[nH]c2ccccc12)NCc1cccc(C(F)(F)F)c1 [Example 1-42, 2-(1H-indol-3-yl)-N-(3-(trifluoromethyl)benzyl)acetamide] | 34.44% | –
O=C(Nc1cc(C(F)(F)F)cc(C(F)(F)F)c1)c1cc2ccccc2[nH]1 [Example 1-84, N-(3,5-bis(trifluoromethyl)phenyl)-1H-indole-2-carboxamide] | 26.01% | –
COc1ccc(CNC(=O)Cc2c[nH]c3ccccc23)cc1OC [Example 1-45, N-(3,4-dimethoxybenzyl)-2-(1H-indol-3-yl)acetamide] | 41.05% | –
COc1ccccc1CNC(=O)Cc1c[nH]c2ccccc12 [Example 1-50, 2-(1H-indol-3-yl)-N-(2-methoxybenzyl)acetamide] | 79.27% | –
O=C(CCc1c[nH]c2ccccc12)Nc1cccc(Br)c1 [Example 1-64, N-(3-bromophenyl)-3-(1H-indol-3-yl)propanamide] | not active | –
COC(=O)c1ccc(CNC(=O)Cc2c[nH]c3ccccc23)cc1 [Example 1-38, methyl 4-((2-(1H-indol-3-yl)acetamido)methyl)benzoate] | 99.81% | –
COc1ccc(NC(=O)c2cc3ccccc3[nH]2)cc1OC [Example 1-87, N-(3,4-dimethoxyphenyl)-1H-indole-2-carboxamide] | 71.67% | –
O=C(Nc1cc(C(F)(F)F)cc(C(F)(F)F)c1)c1cc2cc(Cl)ccc2[nH]1 [Example 1-99, N-(3,5-bis(trifluoromethyl)phenyl)-5-chloro-1H-indole-2-carboxamide] | not active | –
Cc1cc(C)cc(NC(=O)c2cc3ccccc3[nH]2)c1 [Example 1-104, N-(3,5-dimethylphenyl)-1H-indole-2-carboxamide] | 66.73% | –
C#Cc1ccc(NC(=O)Cc2c[nH]c3ccccc23)cc1 [Example 1-31, N-(4-ethynylphenyl)-2-(1H-indol-3-yl)acetamide] | not active | –
O=C(CCc1c[nH]c2ccccc12)NCc1ccc(Cl)c(Cl)c1 [Example 1-72, N-(3,4-dichlorobenzyl)-3-(1H-indol-3-yl)propanamide] | not active | –
CC(C)(C)c1ccc(NC(=O)Cc2c[nH]c3ccccc23)cc1 [Example 1-27, N-(4-tert-butylphenyl)-2-(1H-indol-3-yl)acetamide] | 81.22% | –
COc1ccc(NC(=O)Cc2c[nH]c3ccccc23)cc1 [Example 1-11, 2-(1H-indol-3-yl)-N-(4-methoxyphenyl)acetamide] | not active | –
O=C(Nc1ccc(O)c(O)c1)c1c[nH]c2ccccc12 [Example 1-105, N-(3,4-dihydroxyphenyl)-1H-indole-3-carboxamide] | 39.17% | –
COc1ccc(CNC(=O)CCCc2c[nH]c3ccccc23)cc1 [Example 1-81, 4-(1H-indol-3-yl)-N-(4-methoxybenzyl)butanamide] | 59.84% | –
O=C(NNc1ccc(Cl)c(Cl)c1)c1cc2ccccc2[nH]1 [Example 1-6, N′-(3,4-dichlorophenyl)-1H-indole-2-carbohydrazide] | – | 86.59
O=C(Cc1c[nH]c2ccccc12)NNc1cccc(Cl)c1 [Example 1-52, N′-(3-chlorophenyl)-2-(1H-indol-3-yl)acetohydrazide] | 95.18% | –
CC(C)c1ccc(NC(=O)Cc2c[nH]c3ccccc23)cc1 [Example 1-33, 2-(1H-indol-3-yl)-N-(4-isopropylphenyl)acetamide] | 83.43% | –
O=C(Cc1c[nH]c2ccccc12)NNc1ccccc1Cl [Example 1-51, N′-(2-chlorophenyl)-2-(1H-indol-3-yl)acetohydrazide] | 82.82% | –
O=C(Cc1c[nH]c2ccccc12)Nc1ccc(Br)cc1 [Example 1-17, N-(4-bromophenyl)-2-(1H-indol-3-yl)acetamide] | not active | –
